Reference: ChEMBL document CHEMBL1201862, “PubChem BioAssay data set” (2004)
Calls of active or inactive are those of the source.

Tests used:
Mu-type opioid receptor = Mu-type opioid receptor (Homo sapiens, UniProt P35372); type: functional, cell-based;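 also: U2OS cells with beta-arrestin recruitment to OPRM1 by beta-gal complementation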
Coagulation factor XII = target: T1, Coagulation factor XII (Homo sapiens, UniProt P00748); assay: Factor XIIa Dose Response Confirmation from Single Well HTS. [Related pubchem assays (depositor defined):AID701]; type: functional
T1 sequence (P00748 whole entry): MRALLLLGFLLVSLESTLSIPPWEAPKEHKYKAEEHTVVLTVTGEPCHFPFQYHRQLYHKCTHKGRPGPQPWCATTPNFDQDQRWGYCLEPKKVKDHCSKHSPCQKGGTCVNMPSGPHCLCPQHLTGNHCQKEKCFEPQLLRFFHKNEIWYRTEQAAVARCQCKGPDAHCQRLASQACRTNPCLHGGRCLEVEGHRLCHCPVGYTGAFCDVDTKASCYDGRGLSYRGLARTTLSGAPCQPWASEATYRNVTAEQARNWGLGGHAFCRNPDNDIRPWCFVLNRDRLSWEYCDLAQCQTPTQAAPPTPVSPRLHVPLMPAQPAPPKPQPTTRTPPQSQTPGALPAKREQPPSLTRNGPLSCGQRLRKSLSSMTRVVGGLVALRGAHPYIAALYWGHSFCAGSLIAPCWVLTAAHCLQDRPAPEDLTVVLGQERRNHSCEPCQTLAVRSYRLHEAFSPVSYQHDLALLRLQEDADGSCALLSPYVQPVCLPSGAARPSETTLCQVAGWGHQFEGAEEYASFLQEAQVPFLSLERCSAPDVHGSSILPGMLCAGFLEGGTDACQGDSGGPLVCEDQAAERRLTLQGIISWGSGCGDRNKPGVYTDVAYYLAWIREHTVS

[1] = target: 5-hydroxytryptamine receptor 2A (Mus musculus, UniProt P35363); type: functional, cell-based;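 also: CHO-K1 cells with tagged receptor and beta-arrestin; agonist potency measured as compound-induced activation of the receptor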
Chain of 5-hydroxytryptamine receptor 2A (P35363 whole entry): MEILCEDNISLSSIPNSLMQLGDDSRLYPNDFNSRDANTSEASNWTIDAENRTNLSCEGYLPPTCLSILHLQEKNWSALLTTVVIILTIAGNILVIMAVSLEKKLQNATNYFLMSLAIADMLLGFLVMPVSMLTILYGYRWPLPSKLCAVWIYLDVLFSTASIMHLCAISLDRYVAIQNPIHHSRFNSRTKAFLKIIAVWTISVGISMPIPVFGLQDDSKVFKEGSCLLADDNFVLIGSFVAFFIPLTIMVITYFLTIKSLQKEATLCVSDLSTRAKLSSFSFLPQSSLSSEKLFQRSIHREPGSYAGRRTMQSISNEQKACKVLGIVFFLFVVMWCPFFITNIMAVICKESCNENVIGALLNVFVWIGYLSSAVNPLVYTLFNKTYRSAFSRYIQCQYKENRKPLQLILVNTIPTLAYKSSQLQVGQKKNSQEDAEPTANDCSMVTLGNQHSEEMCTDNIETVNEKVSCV

[2] = HEK293T cell cytotoxicity, dose response, cytotoxicity control for HIV Vif inhibitor project, cherry-picks (AID 652208); type: functional, cell-based
[3] = target: T2, Sentrin-specific protease 1 (Homo sapiens, UniProt Q9P0U3); assay: potency of human SENP1 inhibitors, dose response, biochemical, kinetic FRET (AID 651697); type: functional; settings: read-out: IC50_Mean
T2 sequence (Q9P0U3 whole entry): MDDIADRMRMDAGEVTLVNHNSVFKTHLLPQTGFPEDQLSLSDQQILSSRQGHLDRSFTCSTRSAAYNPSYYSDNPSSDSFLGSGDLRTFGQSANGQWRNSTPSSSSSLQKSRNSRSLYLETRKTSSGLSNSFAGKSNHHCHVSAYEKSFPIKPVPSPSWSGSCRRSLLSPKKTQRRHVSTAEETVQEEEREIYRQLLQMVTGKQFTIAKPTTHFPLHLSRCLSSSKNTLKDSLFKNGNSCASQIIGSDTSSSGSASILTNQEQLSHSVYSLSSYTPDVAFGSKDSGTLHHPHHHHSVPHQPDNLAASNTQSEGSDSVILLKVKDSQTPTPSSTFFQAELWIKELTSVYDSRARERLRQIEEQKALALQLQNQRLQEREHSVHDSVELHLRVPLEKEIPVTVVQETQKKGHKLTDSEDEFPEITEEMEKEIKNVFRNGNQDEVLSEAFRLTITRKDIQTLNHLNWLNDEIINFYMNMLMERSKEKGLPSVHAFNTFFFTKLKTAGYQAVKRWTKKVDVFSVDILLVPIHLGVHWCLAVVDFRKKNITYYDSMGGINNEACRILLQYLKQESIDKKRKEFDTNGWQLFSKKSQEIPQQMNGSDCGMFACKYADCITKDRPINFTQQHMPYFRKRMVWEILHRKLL

[4] = target: T2, Sentrin-specific protease 1; assay: Dose response confirmation of small molecule inhibitors of the catalytic domain of the SUMO protease, SENP1 in a FRET assay.; type: functional; settings: read-out: IC50_Mean
[5] = target: T3, DNA repair and recombination protein RAD54-like (Homo sapiens, UniProt Q92698); assay: inhibitors of human RAD54 branch migration, confirmation, biochemical, fluorescence, cherry-picked samples, dose series (AID 651657); type: functional
T3 sequence (Q92698 whole entry): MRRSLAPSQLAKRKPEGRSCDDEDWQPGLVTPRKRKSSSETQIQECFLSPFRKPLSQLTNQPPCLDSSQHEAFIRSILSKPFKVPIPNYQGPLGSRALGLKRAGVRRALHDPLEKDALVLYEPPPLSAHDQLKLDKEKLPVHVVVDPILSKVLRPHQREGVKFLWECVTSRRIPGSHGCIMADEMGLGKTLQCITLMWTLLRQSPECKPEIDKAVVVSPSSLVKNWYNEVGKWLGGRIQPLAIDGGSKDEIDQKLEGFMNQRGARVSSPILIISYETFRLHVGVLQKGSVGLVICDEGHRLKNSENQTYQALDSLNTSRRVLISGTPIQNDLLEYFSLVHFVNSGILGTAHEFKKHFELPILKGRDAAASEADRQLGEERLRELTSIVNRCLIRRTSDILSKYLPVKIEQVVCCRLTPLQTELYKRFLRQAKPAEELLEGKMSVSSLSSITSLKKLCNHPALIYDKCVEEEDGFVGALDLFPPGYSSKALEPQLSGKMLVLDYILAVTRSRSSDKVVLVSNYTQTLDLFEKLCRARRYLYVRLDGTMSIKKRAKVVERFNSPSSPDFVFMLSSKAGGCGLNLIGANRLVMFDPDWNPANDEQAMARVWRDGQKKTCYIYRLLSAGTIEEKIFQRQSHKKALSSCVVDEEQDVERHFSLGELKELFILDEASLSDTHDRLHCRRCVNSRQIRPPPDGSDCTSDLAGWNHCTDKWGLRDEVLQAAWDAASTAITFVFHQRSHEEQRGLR

[6] = target: Hepatocyte nuclear factor 4-alpha (Homo sapiens, UniProt P41235); type: functional, cell-based;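 also: biochemical luminescence-based dose-response counterscreen measuring inhibition of HNF4 dimerization, run alongside a screen for blockers of ABHD5–perilipin-5 interaction; split luciferase complementation of HNF4 fusion proteins in cell lysate measuring dimerization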
Chain of Hepatocyte nuclear factor 4-alpha (P41235 whole entry, the tested form may be a part): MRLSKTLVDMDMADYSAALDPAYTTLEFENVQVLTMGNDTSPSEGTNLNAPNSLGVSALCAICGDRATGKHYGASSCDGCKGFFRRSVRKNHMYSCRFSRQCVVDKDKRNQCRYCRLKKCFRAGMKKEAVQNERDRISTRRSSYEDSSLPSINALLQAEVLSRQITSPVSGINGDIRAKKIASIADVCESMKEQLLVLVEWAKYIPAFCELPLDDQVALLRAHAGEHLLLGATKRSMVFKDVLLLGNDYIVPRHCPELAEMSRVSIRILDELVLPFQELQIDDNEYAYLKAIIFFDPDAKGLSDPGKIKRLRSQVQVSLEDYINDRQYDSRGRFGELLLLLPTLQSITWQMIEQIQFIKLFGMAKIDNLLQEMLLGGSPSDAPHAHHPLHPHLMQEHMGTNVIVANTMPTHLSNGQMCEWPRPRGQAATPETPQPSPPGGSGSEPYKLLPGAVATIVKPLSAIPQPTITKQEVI

[7] = MDA-MB-231 cell growth inhibition, dose response, cytotoxicity control for RAD54 inhibitor project, CellTiter-Glo luminescence, cherry-pick (AID 651692); type: functional, cell-based
[8] = target: T4, Histone-lysine N-methyltransferase NSD2 (Homo sapiens, UniProt O96028); type: biochemical
T4 sequence (O96028 whole entry): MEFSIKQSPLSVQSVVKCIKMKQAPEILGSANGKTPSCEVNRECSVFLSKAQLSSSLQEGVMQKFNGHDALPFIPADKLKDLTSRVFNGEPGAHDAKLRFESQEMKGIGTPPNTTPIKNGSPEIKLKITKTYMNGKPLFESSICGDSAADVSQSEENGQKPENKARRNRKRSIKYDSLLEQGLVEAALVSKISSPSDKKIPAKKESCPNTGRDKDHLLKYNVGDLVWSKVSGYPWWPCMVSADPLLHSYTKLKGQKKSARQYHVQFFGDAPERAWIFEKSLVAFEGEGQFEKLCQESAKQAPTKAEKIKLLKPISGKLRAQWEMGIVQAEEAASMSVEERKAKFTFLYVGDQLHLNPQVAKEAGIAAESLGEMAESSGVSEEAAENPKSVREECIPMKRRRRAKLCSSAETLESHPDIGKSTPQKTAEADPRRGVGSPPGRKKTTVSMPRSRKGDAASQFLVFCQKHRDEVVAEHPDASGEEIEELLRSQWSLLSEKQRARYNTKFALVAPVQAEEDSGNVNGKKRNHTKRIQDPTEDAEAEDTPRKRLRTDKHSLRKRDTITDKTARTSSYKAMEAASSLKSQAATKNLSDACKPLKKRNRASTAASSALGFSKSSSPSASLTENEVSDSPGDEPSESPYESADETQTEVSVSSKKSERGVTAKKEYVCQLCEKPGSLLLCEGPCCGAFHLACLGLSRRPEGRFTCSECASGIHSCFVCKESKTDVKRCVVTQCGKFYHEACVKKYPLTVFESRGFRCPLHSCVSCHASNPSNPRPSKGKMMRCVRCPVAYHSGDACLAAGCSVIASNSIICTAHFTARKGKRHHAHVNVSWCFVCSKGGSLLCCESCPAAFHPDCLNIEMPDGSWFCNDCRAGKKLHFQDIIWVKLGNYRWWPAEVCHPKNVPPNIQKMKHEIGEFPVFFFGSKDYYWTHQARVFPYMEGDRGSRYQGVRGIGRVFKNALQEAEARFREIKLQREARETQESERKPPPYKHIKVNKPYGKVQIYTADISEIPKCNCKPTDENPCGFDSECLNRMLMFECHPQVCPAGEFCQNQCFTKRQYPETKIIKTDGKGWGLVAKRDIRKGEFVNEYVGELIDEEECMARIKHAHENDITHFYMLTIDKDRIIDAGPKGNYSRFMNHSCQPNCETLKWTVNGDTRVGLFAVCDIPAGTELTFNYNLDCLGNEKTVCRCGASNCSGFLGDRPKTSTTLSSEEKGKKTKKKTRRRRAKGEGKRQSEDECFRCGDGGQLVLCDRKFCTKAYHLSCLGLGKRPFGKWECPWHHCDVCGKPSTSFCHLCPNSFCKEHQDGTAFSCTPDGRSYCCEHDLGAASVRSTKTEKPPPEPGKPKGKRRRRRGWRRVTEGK

[9] = target: T5, DNA repair protein RAD52 homolog (Homo sapiens, UniProt P43351); type: functional, biochemical
T5 sequence (P43351 whole entry): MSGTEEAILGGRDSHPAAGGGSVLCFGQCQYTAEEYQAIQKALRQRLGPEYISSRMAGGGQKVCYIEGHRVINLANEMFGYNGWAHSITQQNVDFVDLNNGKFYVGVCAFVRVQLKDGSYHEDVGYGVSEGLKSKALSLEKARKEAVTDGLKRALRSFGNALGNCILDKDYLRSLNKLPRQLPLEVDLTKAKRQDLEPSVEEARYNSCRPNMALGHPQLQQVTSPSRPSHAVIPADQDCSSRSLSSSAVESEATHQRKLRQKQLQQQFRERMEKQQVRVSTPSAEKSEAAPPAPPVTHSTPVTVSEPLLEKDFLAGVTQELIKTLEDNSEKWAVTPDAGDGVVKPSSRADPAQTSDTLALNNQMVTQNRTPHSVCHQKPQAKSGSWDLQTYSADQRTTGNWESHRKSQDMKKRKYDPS

[10] = HeLa cell cytotoxicity, dose response, cytotoxicity control for MgcRacGAP inhibitor project (AID 624300); type: functional
[11] = target: T6, Rac GTPase-activating protein 1 (Homo sapiens, UniProt Q9H0H5); assay: MgcRacGAP GTPase-activating activity inhibitors, confirmation, biochemical, ADP Hunter fluorescence, primary and confirmatory (AID 624330); type: functional
T6 sequence (Q9H0H5 whole entry): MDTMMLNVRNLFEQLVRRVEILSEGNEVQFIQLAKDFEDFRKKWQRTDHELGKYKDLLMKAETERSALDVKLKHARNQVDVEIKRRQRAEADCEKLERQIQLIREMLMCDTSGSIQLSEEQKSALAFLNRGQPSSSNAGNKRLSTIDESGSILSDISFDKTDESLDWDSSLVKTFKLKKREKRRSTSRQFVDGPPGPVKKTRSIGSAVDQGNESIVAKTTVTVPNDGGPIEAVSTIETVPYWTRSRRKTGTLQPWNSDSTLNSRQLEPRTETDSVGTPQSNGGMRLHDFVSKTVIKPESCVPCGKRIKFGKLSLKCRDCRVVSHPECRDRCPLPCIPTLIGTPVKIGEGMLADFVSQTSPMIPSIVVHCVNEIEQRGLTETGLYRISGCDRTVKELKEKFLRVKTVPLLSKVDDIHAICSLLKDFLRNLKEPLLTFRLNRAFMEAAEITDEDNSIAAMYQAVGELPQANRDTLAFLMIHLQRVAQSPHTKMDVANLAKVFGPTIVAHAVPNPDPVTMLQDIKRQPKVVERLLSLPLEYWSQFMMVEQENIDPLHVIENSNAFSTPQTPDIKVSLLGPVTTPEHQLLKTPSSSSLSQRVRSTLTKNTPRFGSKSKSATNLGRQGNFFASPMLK

[12] = target: T7, Probable nicotinate-nucleotide adenylyltransferase (Staphylococcus aureus (strain N315), UniProt P65502); type: functional, Staphylococcus aureus subsp. aureus N315; settings: read-out: IC50_Mean;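 as to IC50 Mean: confirmatory dose-response retesting of NadD inhibitor hits first found in an ultra-high-throughput screen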
T7 sequence (P65502 whole entry): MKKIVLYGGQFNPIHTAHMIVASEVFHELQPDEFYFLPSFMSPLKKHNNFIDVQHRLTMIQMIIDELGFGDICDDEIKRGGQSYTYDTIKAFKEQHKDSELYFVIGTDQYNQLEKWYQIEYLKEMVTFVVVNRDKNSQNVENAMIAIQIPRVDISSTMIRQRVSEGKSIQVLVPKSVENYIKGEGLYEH

Genome polyprotein = Genome polyprotein (dengue virus type 2, UniProt P29990); assay: Dengue-2 NS5 methyltransferase inhibitors, primary screen, biochemical, confirmation dose response (AID 588689); type: functional
Chain of Genome polyprotein (P29990 2492-3391 limits assumed): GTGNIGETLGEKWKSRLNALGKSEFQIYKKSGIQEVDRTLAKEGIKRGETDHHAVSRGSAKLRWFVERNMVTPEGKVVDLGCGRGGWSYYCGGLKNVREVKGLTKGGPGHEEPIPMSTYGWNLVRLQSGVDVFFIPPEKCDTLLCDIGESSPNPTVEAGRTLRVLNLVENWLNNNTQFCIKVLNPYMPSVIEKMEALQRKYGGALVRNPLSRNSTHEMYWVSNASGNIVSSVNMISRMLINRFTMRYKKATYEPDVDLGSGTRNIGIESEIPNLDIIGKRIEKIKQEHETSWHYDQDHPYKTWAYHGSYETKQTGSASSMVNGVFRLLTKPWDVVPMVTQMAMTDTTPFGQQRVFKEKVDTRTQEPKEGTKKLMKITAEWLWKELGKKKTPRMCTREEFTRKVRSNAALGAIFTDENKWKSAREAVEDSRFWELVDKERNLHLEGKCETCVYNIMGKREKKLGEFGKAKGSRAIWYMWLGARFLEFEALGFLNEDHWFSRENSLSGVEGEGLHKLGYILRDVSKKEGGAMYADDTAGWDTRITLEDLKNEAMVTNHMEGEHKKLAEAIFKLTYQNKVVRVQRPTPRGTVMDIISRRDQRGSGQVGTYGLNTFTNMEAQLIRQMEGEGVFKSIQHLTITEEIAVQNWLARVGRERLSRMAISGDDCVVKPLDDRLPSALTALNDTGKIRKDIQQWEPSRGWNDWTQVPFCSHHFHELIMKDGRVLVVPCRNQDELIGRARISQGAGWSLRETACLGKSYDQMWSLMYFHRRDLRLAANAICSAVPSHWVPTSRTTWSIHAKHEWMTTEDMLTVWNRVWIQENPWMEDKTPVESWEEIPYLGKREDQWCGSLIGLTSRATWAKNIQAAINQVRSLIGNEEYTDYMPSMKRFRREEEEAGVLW

[13] = target: T7, Probable nicotinate-nucleotide adenylyltransferase; type: functional, Staphylococcus aureus subsp. aureus N315
Beta-lactamase [14] = target: Beta-lactamase (Salmonella choleraesuis (strain SC-B67), UniProt Q5J463); assay: Epi-absorbance-based counterscreen for selective VIM-2 inhibitors: dose response biochemical high throughput screening assay to identify inhibitors of TEM-1 serine-beta-lactamase.
Chain of Beta-lactamase (Salmonella choleraesuis (strain SC-B67), UniProt Q5J463) (Q5J463 whole entry): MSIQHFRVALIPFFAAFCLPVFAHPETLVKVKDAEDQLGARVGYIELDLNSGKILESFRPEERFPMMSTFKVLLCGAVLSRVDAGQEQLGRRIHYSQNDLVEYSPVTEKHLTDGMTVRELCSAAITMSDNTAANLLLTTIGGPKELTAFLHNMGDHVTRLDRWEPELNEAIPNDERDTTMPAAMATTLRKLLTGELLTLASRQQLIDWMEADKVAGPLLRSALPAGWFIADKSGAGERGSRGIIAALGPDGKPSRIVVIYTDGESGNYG

Beta-lactamase [15] = target: T8, Beta-lactamase (Pseudomonas aeruginosa, UniProt Q79MP6); assay: IMP-1 metallo-beta-lactamase inhibitors, dose response, selectivity assay for VIM-2 inhibitor project, biochemical, epi-absorbance (AID 1920)
T8 sequence (Q79MP6 whole entry): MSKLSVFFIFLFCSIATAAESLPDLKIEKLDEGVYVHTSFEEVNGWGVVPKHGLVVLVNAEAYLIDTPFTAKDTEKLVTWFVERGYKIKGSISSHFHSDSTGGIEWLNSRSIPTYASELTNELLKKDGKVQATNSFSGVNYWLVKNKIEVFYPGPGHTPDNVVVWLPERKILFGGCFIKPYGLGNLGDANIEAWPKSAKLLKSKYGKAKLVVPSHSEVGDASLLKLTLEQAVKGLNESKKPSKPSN

Beta Lactamase [16] = target: T9, Beta Lactamase (Pseudomonas aeruginosa, UniProt Q932Y6); assay: VIM-2 metallo-beta-lactamase inhibitor potency, dose response, biochemical, epi-absorbance readout, selective inhibitors (AID 1919)
T9 sequence (Q932Y6 whole entry): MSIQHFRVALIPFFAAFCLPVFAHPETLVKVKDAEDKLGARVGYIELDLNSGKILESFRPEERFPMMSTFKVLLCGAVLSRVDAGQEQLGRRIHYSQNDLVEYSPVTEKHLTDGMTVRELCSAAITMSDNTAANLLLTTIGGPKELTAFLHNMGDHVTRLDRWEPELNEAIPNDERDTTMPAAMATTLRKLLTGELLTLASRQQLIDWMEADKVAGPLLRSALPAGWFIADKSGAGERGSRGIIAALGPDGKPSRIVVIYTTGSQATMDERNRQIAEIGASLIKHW

Beta-lactamase [17] = target: T8, Beta-lactamase; assay: […] counterscreen for selective VIM-2 inhibitors: dose response biochemical high throughput screening assay to identify inhibitors of IMP-1 metallo-beta-lactamase.
Beta Lactamase [18] = target: T9, Beta Lactamase; assay: VIM-2 inhibitor FRET-based artefact check, dose response, artefact control for selective VIM-2 inhibitor project, biochemical, FRET readout, CCF2 substrate (AID 1926)

Chain of Mu-type opioid receptor (P35372 whole entry): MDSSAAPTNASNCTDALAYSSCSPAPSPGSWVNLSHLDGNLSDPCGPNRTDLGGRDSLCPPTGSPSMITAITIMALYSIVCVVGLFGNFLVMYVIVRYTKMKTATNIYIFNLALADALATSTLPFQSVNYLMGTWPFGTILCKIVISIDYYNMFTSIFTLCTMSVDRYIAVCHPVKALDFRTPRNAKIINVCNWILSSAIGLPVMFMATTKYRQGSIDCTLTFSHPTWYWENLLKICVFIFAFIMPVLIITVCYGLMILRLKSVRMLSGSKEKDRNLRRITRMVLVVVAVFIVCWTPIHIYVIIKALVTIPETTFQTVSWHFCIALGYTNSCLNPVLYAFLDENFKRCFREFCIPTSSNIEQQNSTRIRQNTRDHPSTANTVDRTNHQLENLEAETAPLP

SMILES: CCOC(=O)N1CCN(C/C(C)=C/c2ccccc2)CC1
- EC50 (Mu-type opioid receptor): 92.5 µM (inactive)
- IC50 (Coagulation factor XII): > 50 µM (inactive)
- EC50 [1]: 11.5 µM (inactive)

SMILES: CCOC(=O)C1CCN(S(=O)(=O)c2cccc(-c3cn4cc(C)ccc4n3)c2)CC1
- AC50 [2]: > 52 µM (inactive)

SMILES: COc1ccc(N2C(=O)C3C(C2=O)C(C(=O)c2ccc(Cl)cc2)N2CCCC32)cc1 (stereo unspecified)
- IC50 [3]: 5.56 µM (active)
- IC50 [4]: 4.36 µM (active)

SMILES: COc1cc(C)c2sc3ccccc3c(=O)c2c1NCCN(C)C
- AC50 [5]: 2.7 µM (active)
- IC50 [6]: 36.1 µM (inactive)
- AC50 [7]: 33.6 µM (active)
- AC50 [8]: 5.29 µM (active)
- AC50 [9]: 1.07 µM (active)
- CC50 [10]: 53.3 µM (active)
- IC50 [11]: 71.4 µM (active)

SMILES: Cc1ccc(NS(=O)(=O)c2ccc(N/N=C/c3ccccc3OCC(=O)O)c([N+](=O)[O-])c2)c(C)c1
- IC50 [12]: 23.3 µM (active)
- IC50 (Genome polyprotein): 43.9 µM (active)
- IC50 [13]: 6.32 µM (active)

SMILES: COc1ccc(OC)c(/C=N/NC(=O)CC2C(=O)NN=C2C)c1 (stereo unspecified)
- IC50 (Beta-lactamase [14]): > 59.6 µM (inactive)
- IC50 (Beta-lactamase [15]): > 59.6 µM (inactive)
- IC50 (Beta Lactamase [16]): 6.1 µM (active)
- IC50 (Beta-lactamase [17]): > 59.6 µM (inactive)
- IC50 (Beta Lactamase [18]): 2.13 µM (active)
